From patent US11311513B2, “Methods, agents, and compositions for the treatment of acute myeloid leukemia” (UNIVERSITY OF CINCINNATI, priority 2017, dated 2022)

Key:
[1] = tested on: FLT3-ITD/NPM1^mut AML; assay: FLT3-ITD/NPM1mut AML secondary BMT mouse model; format: in vivo, mice; conditions: 2.5 mg/kg i.p. once per day for 10 days; for median survival: control 21 days
Method: FIG. 4. […] (a) Structures of NSC-370284 and UC-514321. […] Cells were treated with drugs at indicated doses. Cell viability was detected by MTS 48 hrs post-treatment. Error bar indicates SD of triplicate experiments. […] Secondary BMT recipient mice were transplanted with primary leukemic BM cells with MLL-AF9 (f) or AML-ETO9a (g). […] Kaplan-Meier curves are shown. The P values were determined by log-rank test. […] Secondary BMT recipient mice were transplanted with primary leukemic BM cells with MLL-AF10 or FLT3-ITD/NPM1^mut. […] Kaplan-Meier curves are shown. The P values were determined by log-rank test. (j) Wright-Giemsa staining of mouse PB and BM, or H&E staining of mouse spleen and liver of MLL-AF9 AML secondary BMT recipients with or without drug treatment.
Secondary mouse BMT was carried out as described previously. […] For the “5+3” treatment, AraC (Cytarabine, Bedford Laboratories) and DNR (Daunorubicin, Sigma-Aldrich) were reconstituted with PBS, filtered, and stored in aliquots at −20° C. The “5+3” therapy regimen consists of five consecutive daily doses of 50 mg/kg AraC along with 3 mg/kg DNR daily during the first three days of treatment. Drugs were delivered by tail vein and intraperitoneal injection. Weights were taken daily during treatment and doses were recalculated to ensure the mice received a consistent dose of 50 mg/kg AraC and 3 mg/kg DNR every treatment.

[2] = tested on: global 5hmC level; assay: Global 5hmC level (5hmC labeling and dot-blotting); format: cell-based; conditions: for global 5hmC levels: MONOMAC-6 cells
Method: (§1) FIG. 1. […] Cell viability was analyzed by MTS 48 hours post-treatment. […] TET1 expression levels were detected by qPCR 48 hrs post-treatment. […] TET1 expression levels (e) and cell viability (f) were detected 24 hrs post-treatment. *, P<0.05, two-tailed t-test. MM6, MONOMAC-6. Error bar indicates SD of triplicate experiments.
The 5-hydroxymethylcytosine (5-hmC) labeling reactions and 5hmC dot blotting were performed as described previously (Huang, H., et al. TET1 plays an essential oncogenic role in MLL-rearranged leukemia. Proc Natl Acad Sci USA 110, 11994-11999 (2013)). Briefly, 3 jig sonicated genomic DNA (100-500 bp) fragments were incubated in solution containing 50 mM Hepes buffer (pH 7.9), 25 mM MgCl2, 100 jiM UDP-6-N3-Glc, and 1 jiM beta-glucosyltransferase (f3-GT) for 1 hr at 37° C. The CLICK was performed with addition of 150 jiM dibenzocyclooctyne modified biotin into the purified DNA solution, and the reaction mixture was incubated for 2 hrs at 37° C. Six hundred nanograms of labeled genomic DNA samples were spotted on an Amersham Hybond-N+ membrane (GE Healthcare, Little Chalfont, UK). DNA was fixed to the membrane by Stratagene UV Stratalinker 2400 (auto-crosslink). The membrane was then blocked with 5% BSA and incubated with Avidin-HRP (1:40,000) (Bio-Rad, Hercules, Calif.), and then visualized by enhanced chemiluminescence.

[3] = tested on: binding of STAT3/5 to TET1 promoter; assay: ChIP-qPCR in MONOMAC-6 cells; format: cell-based; conditions: 500 nM, 48 hrs
Method: ChIP assay was conducted as described previously (Barry, S. P., et al., STAT3 modulates the DNA damage response pathway, Int J Exp Pathol 91:506-14 (2010)), with SABiosciences Corporation's ChampionChIP One-Day kit (Qiagen, Frederick, Md.) following the manufacturer's protocol. Chromatin from MONOMAC-6 cells were cross-linked, sonicated into an average size of ˜500 bp, and then immunoprecipitated with antibodies against STAT3 (Santa Cruz, Dallas, Tex.), STAT5 (BD Biosciences, San Jose, Calif.), or IgG (Abcam, Cambridge, Mass.). Purified DNA was amplified by real-time qPCR using primers targeting the promoter of TET1 as described before (Huang, H., et al., TET1 plays an essential oncogenic role in MLL-rearranged leukemia, Proc Natl Acad Sci USA 110:11994-99 (2013)). Sequences of qPCR primers are: Site 1 forward: 5′-[…]-3′ (SEQ ID NO: 3), reverse: 5′-[…]-3′ (SEQ ID NO: 4); Site 2 forward: 5′-[…]-3′ (SEQ ID NO: 5), reverse: 5′-[…]-3′ (SEQ ID NO: 6); Site 3 forward: 5′-[…]-3′ (SEQ ID NO: 7), reverse: 5′-[…]-3′ (SEQ ID NO: 8); Site 4 forward: 5′-[…]-3′ (SEQ ID NO: 9); reverse: 5′-[…]-3′ (SEQ ID NO: 10).

[4] = tested on: MONOMAC-6 cells; assay: MTS cell viability, MONOMAC-6; format: cell-based; conditions: 48 hrs
Method: In order to identify chemical compounds that may target TET1 signaling, the drug-sensitivity/gene expression database of a total of 20,602 chemical compounds in the NCI-60 collection of cancer cell samples was searched.
All cell lines were authenticated through STR profiling yearly.
These experiments were conducted as described previously (Jiang, X., et al., Blockade of miR-150 Maturation by MLL-Fusion/MYC/LIN-28 Is Required for MLL-Associated Leukemia, Cancer Cell 22:524-35 (2012); Li, Z., et al., miR-196b directly targets both HOXA9/MEIS1 oncogenes and FAS tumour suppressor in MLL-rearranged leukaemia, Nat Commun 2:688 (2012)) with ApoLive-Glo Multiplex Assay Kit, or CellTiter 96 AQueous Non-Radioactive Cell Proliferation Assay Kit (Promega, Madison, Wis.).

[5] = tested on: TET1; assay: TET1 expression by qPCR in AML cell lines; format: cell-based
Method: as §1
Total RNA was extracted with the miRNeasy extraction kit (Qiagen) and was used as template for quantitative RT-PCR (qPCR) analysis.

| Structure (SMILES) | median survival [1] [days] | global 5hmC level ([2]; 300 nM, THP-1 and MONOMAC-6 cells) | global 5hmC levels [2] | binding of STAT3 and STAT5 on the TET1 loci/promoter [3] | IC50 ([4]; Homo sapiens, MONO-MAC-6, MONOMAC-6 cells, unit inferred, read-out: IC50 MMC6) [pM] | TET1 transcription ([5]; 25 nM, 24 hours, MONOMAC-6, THP-1 and KOCL-48 cells) | level of TET1 expression ([5]; TET1-high AML cells, 300 nM, qPCR 48 hrs) | recipients that developed full-blown AML within 50 days [1] | MONOMAC-6 cell viability among 30 analogues ([4]; MTS) | expression of TET1, TET2, TET3 ([5]; MONOMAC-6 cells, 500 nM, 48 hrs) |
| --- | --- | --- | --- | --- | --- | --- | --- | --- | --- | --- |
| COc1cc(C(c2cc3c(cc2O)OCO3)N2CCCC2)cc(OC)c1OC (stereo not shown) [NSC-370284, 6-(1-Pyrrolidinyl(3,4,5-trimethoxyphenyl)methyl)-1,3-benzodioxol-5-ol] | 34 | significantly repressed | significantly reduced | could be disturbed | 385 | significant down-regulation | significantly repressed | – | – | – |
| CC(C)(C)c1cc(C(c2cc3c(cc2O)OCO3)N2CCOCC2)cc(C(C)(C)C)c1O (stereo not shown) [UC-514321, 6-{[4-Hydroxy-3,5-bis(2-methyl-2-propanyl)phenyl](4-morpholinyl)methyl}-1,3-benzodioxol-5-ol] | > 50 | – | significantly reduced | remarkable repression | – | – | – | none | most significantly repressed | significantly repressed expression of TET1, but not TET2 or TET3 |
